US8044057B2, “Methods for suppressing an immune response or treating a proliferative disorder” (The United States of America as represented by the …, priority 2003, dated 2011)

Tests used:
recombinant CK2 = molecular target: T1, recombinant CK2 (Homo sapiens, UniProt P68400); test: Casein kinase 2 activity kit, 32P incorporation into substrate peptide; type: biochemical
T1 construct: purchased Upstate Biotechnology 17-132 (number of the activity kit, not of the enzyme)
Method: FIGS. 5A-5B are bar graphs showing that LY303511 inhibits the cell cycle by causing combined G1 and G2/M arrest and that LY303511 inhibits CK2 activity. For the data shown in FIG. 5A, PASM cells were cultured in medium with FBS for 48 hours before the addition of 0-100 μM LY303511 without or with raparnycin, 400 ng/ml, for 24 hours. Cells were then harvested and incubated with propidium iodide for 2 hours before counting using a Becton-Dickson FACSCalibur. Data are the means (±SEM) of percentages of cells in G1, S, or G2/M phase of the cell cycle in three experiments with duplicate assays. *p<0.05 vs. DMSO control, or †p<0.05 vs. 10 μM LY303511, by Student's t—test. FIG. 5B is a bar graph showing that LY303511 or LY294002 inhibits CK2 in vitro. As per the manufacturer (Upstate Biotechnologies), 0 or 100 ng of recombinant CK2 were incubated with CK2 substrate peptide and ^32P-γ-ATP for 10 min with 1% DMSO or inhibitors as indicated. Data are the means of values for samples with inhibitors expressed as percentage of that for control, which was (mean±SEM) 0.2±0.03 pmol phosphate/100 ng protein/10 min. Data are from three experiments performed in duplicate. *p<0.05 by Student's t-test when compared to DMSO control.
One specific assay for casein kinase 2 activity is available commercially as a kit from Upstate Biotechnology (New York). The assay is based on phosphorylation of a specific substrate (CK-2 substrate peptide) using the transfer of the gamma-phosphate of ^32P-ATP by casein kinase 2 during a 10 minute incubation at 30° C. The phosphorylated substrate is then separated from the residual ^32P-ATP using P81 phosphocellulose paper, and quantified by scintillation counting.
Casein kinase 2 (CK2) activity (counts per rninute) was measured using a casein kinase 2 activity kit (Upstate Biotechnology catalogue number 17-132) by incubating recombinant 100 ng CK2, magnesium/ATP cocktail (10 mcCi ^32P-garnma-ATP, 0.675 micromoles MgCl2, 4.5 nmoles ATP), and 10 micromoles peptide substrate (arnino acid sequence RRRDDDSDDD (SEQ ID NO: 1) in 50 mcl assay buffer without or with the indicated concentrations of DMSO (1%), LY294002, LY303511, or rapamycin for 10 minutes at 30° C. Assays were stopped with 20 mcl of 40% trichloroacetic acid, and 25 mcl were spotted on P81 phosphocellulose paper squares before washing 3 times with 0.75% phosphoric acid, and once with acetone. 32P incorporation on the substrate peptide was detected by counting the phosphocellulose squares in 5 ml scintillation fluid using a Packard 100 Tri-Carb liquid scintillation counter.
Measurement of casein kinase 2 (CK2) activity: CK2 activity (counts per minute) was measured using a CK2 activity kit (Upstate, Charlottesville, Va.) by incubating 100 ng of recombinant CK2, rnagnesium/ATP cocktail (10 μCi ^32P-gamma-ATP, 0.675 μmol MgCl2, 4.5 nmol ATP), and 10 μmol peptide substrate (amino acid sequence RRRDDDSDDD) in 50 μl assay buffer (20 mM MOPS, pH 7.2, 5 mM EGTA, 25 mM β-glycerol phosphate, 1 mM sodium orthovanadate, 1 mM dithiothreitol) without or with the indicated concentrations of LY294002, LY303511, wortmannin or rapamycin in 1% DMSO for 10 min at 30° C. Assays were stopped with 20 μl of 40% trichloroacetic acid, and samples (25 μl) of supernatant were applied to P81 phosphocellulose paper squares, which were then washed three times with 0.75% phosphoric acid, and once with acetone. ^32P in the substrate peptide was quantified using a Packard 100 Tri-Carb liquid scintillation counter on phosphocellulose squares in 5 ml of scintillation fluid. Activity is expressed as pmol phosphate incorporated per 10 minutes. CK2 activity measured in the presence of inhibitors was divided by that measured for the DMSO control (=100% control).

A549 cells = test: Microarray gene expression analysis in A549 cells; type: cell-based, human; details: inhibitor 1 hour before L/I for 6 hours
Method: Microarray gene expression analyses have been performed in which A549 cells were incubated without or with LY294002 or wortmannin for 1 hour before the addition of L/I for 6 hours. […] The mRNAs of other kinases that were increased by LY294002 included that encoding CK2α′ (1.8-fold; GenBank accession #M55268). Since CK2 can regulate both G1 and G2/M cell cycle transitions, the effects of LY294002 and LY303511 on CK2 activity were assessed.

T1 sequence (P68400 whole entry): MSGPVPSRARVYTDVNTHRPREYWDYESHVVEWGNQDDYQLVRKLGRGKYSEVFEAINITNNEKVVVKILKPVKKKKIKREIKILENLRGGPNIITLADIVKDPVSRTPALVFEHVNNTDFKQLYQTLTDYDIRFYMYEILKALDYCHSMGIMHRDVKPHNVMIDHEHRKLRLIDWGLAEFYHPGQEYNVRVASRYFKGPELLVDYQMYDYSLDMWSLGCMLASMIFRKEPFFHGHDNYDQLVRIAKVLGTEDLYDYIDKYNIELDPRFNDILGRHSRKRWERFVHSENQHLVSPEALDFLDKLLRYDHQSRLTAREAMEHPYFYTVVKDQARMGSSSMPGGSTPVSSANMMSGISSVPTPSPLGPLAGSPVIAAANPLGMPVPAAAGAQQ
T1 sequence (P67870 2-215 partner limits assumed): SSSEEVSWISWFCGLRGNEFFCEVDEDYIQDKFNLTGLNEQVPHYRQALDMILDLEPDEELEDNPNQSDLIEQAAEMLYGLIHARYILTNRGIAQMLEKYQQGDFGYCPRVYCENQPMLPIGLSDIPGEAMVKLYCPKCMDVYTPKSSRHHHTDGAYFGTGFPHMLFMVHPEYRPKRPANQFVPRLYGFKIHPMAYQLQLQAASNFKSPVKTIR

CK2 IC50 relative to that for LY303511 (recombinant CK2; recombinant CK2 in vitro): one tenth
IC50 (recombinant CK2; recombinant CK2 in vitro, read-out: approximate IC50 for CK2): ~10 µM
SMILES: O=c1cc(N2CCOCC2)oc2c(-c3ccccc3)cccc12 [LY294002, 2-(4-morpholinyl)-8-phenyl-4H-1-benzopyran-4-one, reference compound]
CK2 activity (recombinant CK2; 100 ng recombinant CK2, 10 min at 30° C.): concentration-dependent inhibition of CK2 activity
levels of mTOR mRNA (A549 cells): 1.7 fold
mRNA encoding CK2α′ (A549 cells): 1.8 fold
